According to patent publication US8304446B2, “Compounds” (Glaxo Group Limited, priority 2009, dated 2012):
Where a name gives a salt, the structure may show the parent alone.

Columns and labels:
CD4+ CCR4+ T cells = assay: Chemokine stimulated increases in cellular F-actin content; type: cell-based; settings: Homo sapiens, T-cell, 0.5 h; PBMC from normal volunteers; antagonist 30 min at 37° C. before agonist for 15 sec; F-actin content by flow cytometry; read-out: pA2 (converted)
Procedure, shortened: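 Human PBMC from citrated volunteer blood, stained for CD4 and CCR4, were pre-incubated with antagonist or vehicle (0.1% DMSO) for 30 min at 37 °C, then stimulated with agonist for 15 s and formaldehyde-fixed. F-actin was stained with phalloidin and read by flow cytometry as CD4+CCR4+ MFI relative to CD4+CCR4− cells.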

CCR4 = target: T1, CCR4 (Homo sapiens, UniProt P51679); assay: [35S]-GTPγS SPA binding assay for CCR4 antagonist activity; type: biochemical; settings: CCR4 expressing CHO membranes; human MDC at EC80; [35S]-GTPγS competition
T1 construct: expressed in transfected cells; host or cells: CHO cell membranes
T1 sequence (P51679 1-360): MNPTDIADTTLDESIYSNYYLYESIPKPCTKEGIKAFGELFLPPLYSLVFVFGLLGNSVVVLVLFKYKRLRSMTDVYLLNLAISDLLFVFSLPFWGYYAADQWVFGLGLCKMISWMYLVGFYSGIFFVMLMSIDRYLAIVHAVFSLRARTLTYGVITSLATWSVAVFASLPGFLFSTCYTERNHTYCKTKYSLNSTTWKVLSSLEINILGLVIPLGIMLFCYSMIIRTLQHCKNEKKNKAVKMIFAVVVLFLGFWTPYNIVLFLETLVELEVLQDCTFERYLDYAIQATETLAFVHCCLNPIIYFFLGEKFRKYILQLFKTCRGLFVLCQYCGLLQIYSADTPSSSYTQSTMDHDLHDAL
Description: [35S]-GTPγS SPA Binding Assays for CCR4 Antagonist Activity
Antagonist potency was determined by a radioligand [35S]-GTPγS competition assay. Briefly, CCR4 expressing CHO membranes were homogenised by passing through a 23G needle. These membranes were then adhered to WGA-coated Leadseeker SPA beads in assay buffer (20 mM HEPES, 10 mM MgCl2, 100 mM NaCl, 0.05% BSA, 40 ug/ml Saponin and pH adjusted to 7.4 using KOH 5M) to generate a 3 μg/well final assay concentration (FAC) membrane and 250 μg/well FAC bead, solution.
The bead/membrane/[35S]-GTPγS/Agonist suspension was dispensed into white Greiner polypropylene 384-well plates (45 μl/well), containing 0.5 μl of compound. […] Plates were then read on a Viewlux instrument and luminescence was then plotted as a percentage of the maximum inhibitional response elicited by an IC100 of a standard antagonist.

COc1cccc2c1c(NS(=O)(=O)c1ccc(Cl)s1)nn2Cc1cccc(CNC(=O)C2CNCCN2)c1 (stereo not drawn) [Example 16, N-[(3-{[3-{[(5-chloro-2-thienyl)sulfonyl]amino}-4-(methyloxy)-1H-indazol-1-yl]methyl}phenyl)methyl]-2-piperazinecarboxamide hydrochloride]
Kb (CD4+ CCR4+ T cells): ≤ 126 nM
IC50 (CCR4): 3.98 to 15.8 nM

CN[C@@H](C)C(=O)NCc1cccc(Cn2nc(NS(=O)(=O)c3ccc(Cl)s3)c3c(OC)cccc32)c1 [Example 17, N^1-[(3-{[3-{[(5-chloro-2-thienyl)sulfonyl]amino}-4-(methyloxy)-1H-indazol-1-yl]methyl}phenyl)methyl]-N^2-methyl-L-alaninamide trifluoroacetate]
Kb (CD4+ CCR4+ T cells): ≤ 126 nM
IC50 (CCR4): 3.98 to 15.8 nM

COc1cccc2c1c(NS(=O)(=O)c1ccc(Cl)s1)nn2Cc1cccc(CNC(=O)[C@H](C)N)c1 [Example 18, N^1-[(3-{[3-{[(5-chloro-2-thienyl)sulfonyl]amino}-4-(methyloxy)-1H-indazol-1-yl]methyl}phenyl)methyl]-L-alaninamide trifluoroacetate]
Kb (CD4+ CCR4+ T cells): ≤ 126 nM
IC50 (CCR4): 3.98 to 15.8 nM

COc1cccc2c1c(NS(=O)(=O)c1ccc(Cl)s1)nn2Cc1cccc(CNC(=O)CC(N)=O)c1 [Example 21, N-[(3-{[3-{[(5-chloro-2-thienyl)sulfonyl]amino}-4-(methyloxy)-1H-indazol-1-yl]methyl}phenyl)methyl]propanediamide]
Kb (CD4+ CCR4+ T cells): ≤ 126 nM
IC50 (CCR4): 3.98 to 15.8 nM

COc1cccc2c1c(NS(=O)(=O)c1ccc(Cl)s1)nn2Cc1cccc(CNC(=O)C(C)CN)c1 (stereo not drawn) [Example 26, 3-Amino-N-[(3-{[3-{[(5-chloro-2-thienyl)sulfonyl]amino}-4-(methyloxy)-1H-indazol-1-yl]methyl}phenyl)methyl]-2-methylpropanamide trifluoroacetate]
Kb (CD4+ CCR4+ T cells): ≤ 126 nM
IC50 (CCR4): 3.98 to 15.8 nM

COc1cccc2c1c(NS(=O)(=O)c1ccc(Cl)s1)nn2Cc1cccc(CNC(=O)[C@]2(C)CCCN2)c1 [Example 27, N-[(3-{[3-{[(5-chloro-2-thienyl)sulfonyl]amino}-4-(methyloxy)-1H-indazol-1-yl]methyl}phenyl)methyl]-2-methyl-L-prolinamide trifluoroacetate]
Kb (CD4+ CCR4+ T cells): ≤ 126 nM
IC50 (CCR4): 3.98 to 15.8 nM

COc1cccc2c1c(NS(=O)(=O)c1ccc(Cl)s1)nn2Cc1cccc(CNC(=O)[C@@H]2C[C@H](F)CN2)c1 [Example 28, (4S)—N-[(3-{[3-{[(5-chloro-2-thienyl)sulfonyl]amino}-4-(methyloxy)-1H-indazol-1-yl]methyl}phenyl)methyl]-4-fluoro-L-prolinamide trifluoroacetate]
Kb (CD4+ CCR4+ T cells): ≤ 126 nM
IC50 (CCR4): 3.98 to 15.8 nM

COc1cccc2c1c(NS(=O)(=O)c1ccc(Cl)s1)nn2Cc1cccc(CNC(=O)c2cn[nH]c2)c1 [Example 33, N-[(3-{[3-{[(5-Chloro-2-thienyl)sulfonyl]amino}-4-(methyloxy)-1H-indazol-1-yl]methyl}phenyl)methyl]-1H-pyrazole-4-carboxamide]
Kb (CD4+ CCR4+ T cells): ≤ 126 nM
IC50 (CCR4): 3.98 to 15.8 nM

COc1cccc2c1c(NS(=O)(=O)c1ccc(Cl)s1)nn2Cc1cccc(CNC(=O)C2CCOC2)c1 (stereo not drawn) [Example 35, N-[(3-{[3-{[(5-Chloro-2-thienyl)sulfonyl]amino}-4-(methyloxy)-1H-indazol-1-yl]methyl}phenyl)methyl]tetrahydro-3-furancarboxamide]
Kb (CD4+ CCR4+ T cells): ≤ 126 nM
IC50 (CCR4): 3.98 to 15.8 nM

COc1cccc2c1c(NS(=O)(=O)c1ccc(Cl)s1)nn2Cc1cccc(CNC(=O)C(C)O)c1 (stereo not drawn) [Example 37, N-[(3-{[3-{[(5-Chloro-2-thienyl)sulfonyl]amino}-4-(methyloxy)-1H-indazol-1-yl]methyl}phenyl)methyl]-2-hydroxypropanamide]
Kb (CD4+ CCR4+ T cells): ≤ 126 nM
IC50 (CCR4): 3.98 to 15.8 nM

COc1cccc2c1c(NS(=O)(=O)c1ccc(Cl)s1)nn2Cc1cccc(CNC(=O)C2CCOCC2)c1 [Example 43, N-[(3-{[3-{[(5-chloro-2-thienyl)sulfonyl]amino}-4-(methyloxy)-1H-indazol-1-yl]methyl}phenyl)methyl]tetrahydro-2H-pyran-4-carboxamide]
Kb (CD4+ CCR4+ T cells): ≤ 126 nM
IC50 (CCR4): 3.98 to 15.8 nM

COc1cccc2c1c(NS(=O)(=O)c1ccc(Cl)s1)nn2Cc1cccc(CNC(=O)[C@@H](N)Cc2cnc[nH]2)c1 [Example 44, N-[(3-{[3-{[(5-Chloro-2-thienyl)sulfonyl]amino}-4-(methyloxy)-1H-indazol-1-yl]methyl}phenyl)methyl]-L-histidinamide]
Kb (CD4+ CCR4+ T cells): ≤ 126 nM
IC50 (CCR4): 3.98 to 15.8 nM

COc1cccc2c1c(NS(=O)(=O)c1ccc(Cl)s1)nn2Cc1cccc(CNC(=O)[C@H](N)C(C)C)c1 [Example 48, N^1-[(3-{[3-{[(5-Chloro-2-thienyl)sulfonyl]amino}-4-(methyloxy)-1H-indazol-1-yl]methyl}phenyl)methyl]-D-valinamide]
Kb (CD4+ CCR4+ T cells): ≤ 126 nM
IC50 (CCR4): 3.98 to 15.8 nM

COc1cccc2c1c(NS(=O)(=O)c1ccc(Cl)s1)nn2Cc1cccc(CNC(=O)[C@@H]2CCCCN2)c1 [Example 51, (2S)—N-[(3-{[3-{[(5-Chloro-2-thienyl)sulfonyl]amino}-4-(methyloxy)-1H-indazol-1-yl]methyl}phenyl)methyl]-2-piperidinecarboxamide trifluoroacetate]
Kb (CD4+ CCR4+ T cells): ≤ 126 nM
IC50 (CCR4): 3.98 to 15.8 nM

COc1cccc2c1c(NS(=O)(=O)c1ccc(Cl)s1)nn2Cc1cccc(CNC(=O)[C@@H]2C[C@@H](F)CN2)c1 [Example 52, (4R)—N-[(3-{[3-{[(5-Chloro-2-thienyl)sulfonyl]amino}-4-(methyloxy)-1H-indazol-1-yl]methyl}phenyl)methyl]-4-fluoro-L-prolinamide trifluoroacetate]
Kb (CD4+ CCR4+ T cells): ≤ 126 nM
IC50 (CCR4): 3.98 to 15.8 nM

COc1cccc2c1c(NS(=O)(=O)c1ccc(Cl)s1)nn2Cc1cccc(CNC(=O)[C@H]2CC(F)(F)CN2)c1 [Example 55, N-[(3-{[3-{[(5-Chloro-2-thienyl)sulfonyl]amino}-4-(methyloxy)-1H-indazol-1-yl]methyl}phenyl)methyl]-4,4-difluoro-D-prolinamide trifluoroacetate]
Kb (CD4+ CCR4+ T cells): ≤ 126 nM
IC50 (CCR4): 3.98 to 15.8 nM

COc1cccc2c1c(NS(=O)(=O)c1ccc(Cl)s1)nn2Cc1cccc(CNC(=O)C(C)(C)O)c1 [Example 57, N-[(3-{[3-{[(5-Chloro-2-thienyl)sulfonyl]amino}-4-(methyloxy)-1H-indazol-1-yl]methyl}phenyl)methyl]-2-hydroxy-2-methylpropanamide]
Kb (CD4+ CCR4+ T cells): ≤ 126 nM
IC50 (CCR4): 3.98 to 15.8 nM

NC(=O)c1cccc(Cn2nc(NS(=O)(=O)c3ccc(Cl)s3)c3c(O)cccc32)c1 [Example 70, 3-[(3-{[(5-Chloro-2-thienyl)sulfonyl]amino}-4-hydroxy-1H-indazol-1-yl)methyl]benzamide]
Kb (CD4+ CCR4+ T cells): ≤ 126 nM
IC50 (CCR4): 3.98 to 15.8 nM

CN[C@H](C)C(=O)NCc1cccc(Cn2nc(NS(=O)(=O)c3ccc(Cl)s3)c3c(O)cccc32)c1 [Example 71, N^1-({3-[(3-{[(5-Chloro-2-thienyl)sulfonyl]amino}-4-hydroxy-1H-indazol-1-yl)methyl]phenyl}methyl)-N^2-methyl-D-alaninamide formic acid salt]
Kb (CD4+ CCR4+ T cells): ≤ 126 nM
IC50 (CCR4): 3.98 to 15.8 nM

CC(=O)NCc1cccc(Cn2nc(NS(=O)(=O)c3ccc(Cl)s3)c3c(O)cccc32)c1 [Example 72, N-({3-[(3-{[(5-Chloro-2-thienyl)sulfonyl]amino}-4-hydroxy-1H-indazol-1-yl)methyl]phenyl}methyl)acetamide]
Kb (CD4+ CCR4+ T cells): ≤ 126 nM
IC50 (CCR4): 3.98 to 15.8 nM

O=C(NCc1cccc(Cn2nc(NS(=O)(=O)c3ccc(Cl)s3)c3c(O)cccc32)c1)C1COCCN1 (stereo not drawn) [Example 73, N-({3-[(3-{[(5-Chloro-2-thienyl)sulfonyl]amino}-4-hydroxy-1H-indazol-1-yl)methyl]phenyl}methyl)-3-morpholinecarboxamide formate salt]
Kb (CD4+ CCR4+ T cells): ≤ 126 nM
IC50 (CCR4): 3.98 to 15.8 nM
